The values that follow come from US20250032635A1, “LIGAND-POLAR DRUG CONJUGATES” (priority 2023, published 2025).

One experiment has as its system MKN45. The experiment in a line: In vitro cytotoxicity assay, MKN45. It counts as cell-based. The note with it: MKN45, HER2+. An excerpt:
(§1) Breast cancer cell line MDA-MB-231 and SK-BR-3, gastric cancer cell line NCI-N87, ovarian cancer cell line SK-OV-3, and pancreatic cancer cell line Capan-1 were purchased from ATCC. Breast cancer cell line JIMT-1 was purchased from Deutsche Sammlung von Mikroorganismen und Zellkulturen (DSMZ, Germany). Gastric cancer cell line MKN45 was purchased from RIKEN. Human umbilical vein endothelial cell line (HUVAC) was purchased from BCRC (Bioresource Collection and Research Center, Hsinchu City, Taiwan).
(§2) Human MDR1 overexpressed NCI-N87 (NCI-N87-hMDR1) cell line was produced by lentiviral vector-mediated gene transduction. Briefly, the lentiviral transfer vector contains both hEF1α promotor-driven hMDR1 coding sequence (CDS) and hPGK promoter-driven EGFP-IRES-Puro bicistronic cassette. The lentivirus was packaged using second-generation lentiviral system in 293T cell line. After transfection, stable NCI-N87-hMDR1 was selected and maintained in puromycin (0.55 μg/mL) containing RPMI-1640 medium. JIMT-1 and MDA-MB-231 were maintained in DMEM supplemented with 10% heat-inactivated fetal bovine serum (FBS). […]
(§3) In vitro cytotoxicity assays were performed as previously described (Boyd and Paull, 1995; Phillips et al., 2008). […] IC50, the half maximal inhibitory concentration, was calculated from dose-response curves which was generated by four-parameter curve fitting.

The test system of the next experiment is NCI-N87-hMDR1. The experiment is described as follows: In vitro cytotoxicity assay, MDR1-overexpressing NCI-N87-hMDR1. It counts as cell-based. As to the method: (§4) Human MDR1 overexpressed NCI-N87 (NCI-N87-hMDR1) cell line was produced by lentiviral vector-mediated gene transduction. Briefly, the lentiviral transfer vector contains both hEF1α promotor-driven hMDR1 coding sequence (CDS) and hPGK promoter-driven EGFP-IRES-Puro bicistronic cassette. The lentivirus was packaged using second-generation lentiviral system in 293T cell line. After transfection, stable NCI-N87-hMDR1 was selected and maintained in puromycin (0.55 μg/mL) containing RPMI-1640 medium. JIMT-1 and MDA-MB-231 were maintained in DMEM supplemented with 10% heat-inactivated fetal bovine serum (FBS). NCI-N87, NCI-N87-hMDR1, SK—OV-3, and MKN45 were maintained in RPMI-1640 supplemented with 10% heat-inactivated FBS. SK-BR-3 was maintained in McCoy's 5A supplemented with 10% heat-inactivated FBS. Capan-1 was maintained in IMDM supplemented with 20% heat-inactivated FBS. HUVAC was maintained in M199 supplemented with 25 U/mL heparin, 30 μg/mL ECGS and 10% heat-inactivated FBS. All cell lines were cultured at 37° C. under 5% CO2 atmosphere.
(§5) In Vitro Cytotoxicity Assays of APDCs
as §3

Another experiment has as its system Capan-1. The experiment in a line: In vitro cytotoxicity assay, Capan-1. The experiment is classed as cell-based. The note with it: Capan-1, HER2++.
Description: as §1, §2, §3

In the next experiment the test system is JIMT-1. The experiment is described as follows: In vitro cytotoxicity assay, JIMT-1. The experiment is classed as cell-based. The note with it: JIMT-1, HER2++.
Description: as §1, §2, §3

For another experiment, the system named is SK-BR-3. The experiment in a line: In vitro cytotoxicity assay, SK-BR-3. The experiment is classed as cell-based. The note with it: SK-BR-3, HER2+++.
Description: as §1, §2, §3

The test system of the next experiment is NCI-N87. The experiment in a line: In vitro cytotoxicity assay, NCI-N87. It counts as cell-based.
Description: as §1, §4, §5, §3

The next experiment has as its system JIMT-1 xenograft. The experiment is described as follows: JIMT-1 xenograft tumor model, cytotoxic APDCs. The note with it: single intravenous injection 10 mg/kg at day zero. The experiment is classed as in vivo, mice. As to the method: Xenograft Tumor Model Experiments for Cytotoxic APDCs
Experiments of xenograft tumor model with cytotoxic APDCs were performed as previously described (Jumbe et al., 2010).

Another experiment deals with MDA-MB-231. The experiment in a line: In vitro cytotoxicity assay, MDA-MB-231. The experiment is classed as cell-based. To be noted: MDA-MB-231, HER2+.
Description: as §1, §2, §3

Turning to Trastuzumab emtansine [Kadcyla], the IC50 (in general, the concentration needed to halve the response being measured) came to 52 nM with MKN45 (Table 2); 2.5 nM in the experiment on NCI-N87-hMDR1 (NCI-N87-hMDR1, Table 4); 86 nM with Capan-1 (Table 2); 14 nM with JIMT-1 (Table 2); 0.06 nM with SK-BR-3 (Table 2); 0.15 nM with NCI-N87 (NCI-N87, HER2+++, Table 2). Also, the IC50 with NCI-N87 (NCI-N87, Table 4 (MDR1 comparison)) was determined as 0.38 nM; with MDA-MB-231 (Table 2), 62 nM. Moreover, the GI50 (commonly the concentration giving 50% growth inhibition) in the experiment on MKN45 (Table 3) was 107 nM; in the experiment on NCI-N87-hMDR1 (NCI-N87-hMDR1, Table 5), 6.7 nM; in the experiment with Capan-1 (Table 3), 64 nM; in the experiment with JIMT-1 (Table 3) it was 15 nM; in the experiment on SK-BR-3 (Table 3) it was 0.052 nM; in the experiment with NCI-N87 (NCI-N87, HER2+++, Table 3), 0.24 nM. Moreover, the GI50 with NCI-N87 (NCI-N87, Table 5 (MDR1 comparison)) was found to be 0.53 nM; in the experiment on MDA-MB-231 (Table 3), 156 nM. The “NCI-N87/NCI-N87-hMDR1 (folds), GI50” value in the experiment with NCI-N87-hMDR1 (ratio of GI50 values, Table 5) was 13 folds. Also, in the experiment with JIMT-1 xenograft, the “tumor volume as a function of time (FIG. 1)” value is recorded as “significant tumor growth”.
